# Laboratory results as given in PubChem BioAssay AID1963839 (Molecular Pharmacology Branch, DTP, NCI, 2024).
# System: 817829-284-R-J1-PDC complex spheroid viability
# Assay: Anticancer human tumor 817829-284-R-J1-PDC patient-derived colon adenocarcinoma cell line growth inhibition [POLQ]
# Details: for IC50: curve of first compound; for viability, T/C: stronger effect = lower value
# How it was run: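 Complex spheroid viability model combining PDC tumour cells with endothelial (HUVEC) and MSC stromal cells. Novobiocin, ART-558 or RP6685 were tested singly and in combination with standard and investigational anticancer drugs. Each was titrated in half-log steps from near clinical Cmax, or from 10 microM where Cmax was unknown.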
# 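Note: spheroids exposed to compounds for 7 days.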
# 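Throughout, for viability, T/C: 100% = DMSO vehicle-treated spheroids.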
structure (smiles),measurement,setting,value
COc1cc(C2c3cc4c(cc3C(OC3OC5COC(C)OC5C(O)C3O)C3COC(=O)C23)OCO4)cc(OC)c1O (configuration not stated) + Cc1cccc(N(C)C(=O)C2C(O)CCN2c2nc(C)cc(C(F)(F)F)c2C#N)c1,IC50,second compound 0.0316 µM,55.1 nM
same,IC50,second compound 0.1 µM,56.6 nM
same,IC50,second compound 0.316 µM,72.1 nM
same,IC50,second compound 1 µM,48.6 nM
same,IC50,second compound 3.16 µM,47.5 nM
same,IC50,second compound 10 µM,45 nM
same,"viability, T/C","second compound 0.0316 µM, first compound 0.0316 µM",68.8%
same,"viability, T/C","second compound 0.0316 µM, first compound 0.1 µM",29.6%
same,"viability, T/C","second compound 0.0316 µM, first compound 0.316 µM",15.7%
same,"viability, T/C","second compound 0.0316 µM, first compound 1 µM",17.2%
same,"viability, T/C","second compound 0.0316 µM, first compound 3.16 µM",11.5%
same,"viability, T/C","second compound 0.0316 µM, first compound 10 µM",5.61%
same,"viability, T/C","second compound 0.1 µM, first compound 0.0316 µM",65.9%
same,"viability, T/C","second compound 0.1 µM, first compound 0.1 µM",34.4%
same,"viability, T/C","second compound 0.1 µM, first compound 0.316 µM",11.6%
same,"viability, T/C","second compound 0.1 µM, first compound 1 µM",20.5%
same,"viability, T/C","second compound 0.1 µM, first compound 3.16 µM",13.7%
same,"viability, T/C","second compound 0.1 µM, first compound 10 µM",6.16%
same,"viability, T/C","second compound 0.316 µM, first compound 0.0316 µM",71.5%
same,"viability, T/C","second compound 0.316 µM, first compound 0.1 µM",41.7%
same,"viability, T/C","second compound 0.316 µM, first compound 0.316 µM",15.8%
same,"viability, T/C","second compound 0.316 µM, first compound 1 µM",16.7%
same,"viability, T/C","second compound 0.316 µM, first compound 3.16 µM",12.2%
same,"viability, T/C","second compound 0.316 µM, first compound 10 µM",7.12%
same,"viability, T/C","second compound 1 µM, first compound 0.0316 µM",63.2%
same,"viability, T/C","second compound 1 µM, first compound 0.1 µM",26.5%
same,"viability, T/C","second compound 1 µM, first compound 0.316 µM",18.9%
same,"viability, T/C","second compound 1 µM, first compound 1 µM",19.1%
same,"viability, T/C","second compound 1 µM, first compound 3.16 µM",14.4%
same,"viability, T/C","second compound 1 µM, first compound 10 µM",6.32%
same,"viability, T/C","second compound 3.16 µM, first compound 0.0316 µM",57.4%
same,"viability, T/C","second compound 3.16 µM, first compound 0.1 µM",38.2%
same,"viability, T/C","second compound 3.16 µM, first compound 0.316 µM",18%
same,"viability, T/C","second compound 3.16 µM, first compound 1 µM",15.7%
same,"viability, T/C","second compound 3.16 µM, first compound 3.16 µM",12.5%
same,"viability, T/C","second compound 3.16 µM, first compound 10 µM",6.13%
same,"viability, T/C","second compound 10 µM, first compound 0.0316 µM",59.6%
same,"viability, T/C","second compound 10 µM, first compound 0.1 µM",26.6%
same,"viability, T/C","second compound 10 µM, first compound 0.316 µM",22.6%
same,"viability, T/C","second compound 10 µM, first compound 1 µM",17.6%
same,"viability, T/C","second compound 10 µM, first compound 3.16 µM",11.6%
same,"viability, T/C","second compound 10 µM, first compound 10 µM",5.64%
